Experimental data as given in paper PMC5551389 (Nature, 2016).

Columns and labels:
[1] = test system: human monocyte-derived macrophages
[2] = test system: RSV A2; assay: microbe, parasite or virus in culture; assay type: cell-based; conditions: human respiratory syncytial virus
[3] = test system: HIV-1; assay: microbe, parasite or virus in culture; assay type: cell-based, human immunodeficiency virus type 1
[4] = test system: CHIV; assay: microbe, parasite or virus in culture; assay type: cell-based; conditions: Chikungunya virus, U2OS

For `CCC(CC)COC(=O)[C@H](C)N[P@](=O)(OC[C@H]1O[C@@](C#N)(c2ccc3c(N)ncnn23)[C@H](O)[C@@H]1O)Oc1ccccc1` [GS-5734], which “Intracellular NTP levels, fold higher than with Nuc” value [1] is on record?
The value was “up to 30 fold”.

What about the EC50 ([2]; HEp-2, read-out: Antiviral activity EC50) of the same compound?
The EC50 was 19 nM.

What about the EC90 ([2]; HEp-2, read-out: Antiviral activity EC90) of the same compound?
The EC90 was 51 nM.

What about the EC50 ([3]; Human immunodeficiency virus 1, read-out: Antiviral activity EC50) of the same compound?
Its EC50 is greater than 20 µM.

What about the EC90 ([3]; Human immunodeficiency virus 1, read-out: Antiviral activity EC90) of the same compound?
The EC90 was greater than 20 µM.

And the EC50 ([4]; read-out: Antiviral activity EC50)?
The EC50 was greater than 20 µM.

And the EC90 ([4]; read-out: Antiviral activity EC90)?
The EC90 was greater than 20 µM.
